We go through 13 compounds from patent publication US20240100018A1, “COMPOUNDS FOR THE TREATMENT OF A DISEASE OR DISORDER, METHODS FOR IDENTIFYING SAID COMPOUNDS” (priority 2021, published 2024).

For series [1], the system named is HEK293T cells transfected with ACE2 and TMPRSS2, SARS-CoV-2 spike-mediated cell fusion. The series can be described thus: cells. It is filed as cell-based, human.
Series [2] concerns Vero-E6 cells. The experiment in a line: Toxicity by reduced cell count in the viral inhibition assay. The following applies: for host cell toxicity (reduced cell count): concentration not given.
Series [3] relates to SARS-CoV-2 Isolate USA-WA1/2020. The series can be described thus: In vitro viral inhibition assay in Vero-E6 cells (spike immunofluorescence). Format: cell-based.
For another series, the system named is Covid-19. The following applies: in vivo; cited from earlier work.
The conditions of series [4]: human, in vivo; cited from earlier work.
Series [5] concerns Calu-3 lung cancer cells, SARS-CoV-2 spike-mediated cell fusion. Format: cell-based, human.
Series [6] concerns Vero-E6 cells.
The mark [7] stands for this setting: HEK293 syncytia assay, dose-response.
The mark [8] stands for this setting: summary call Active / Not Tested, cell line not given.
The mark [9] stands for this setting: summary call Active / Not Tested.

“Also recorded” adds a separate entry of the source. Counter-ions that a name gives are not always drawn. Like-named read-outs stand apart in the source and are kept apart here.

On to `CN(C)CCC(c1ccc(Br)cc1)c1ccccn1` (centres unmarked) [brompheniramine, Brompheniramine], for which the “cell loss / cytotoxicity (total GFP)” value in the series with HEK293 cells (setting [7]) was “did not mirror cell loss”. For the same compound, in series [1], the “inhibition of syncytia formation (cell fusion)” value (“inhibition of syncytia formation” below) is given as “impaired viral entry; also recorded: to a lesser extent, brompheniramine, showed dose-responsive inhibition of syncytia formation; also recorded: inhibited syncytia formation”. In addition, the “Syncytia Assay” value in series [1] (setting [8]) is listed as “Active”.

As for `O=C1[C@H](CC[C@H](O)c2ccc(F)cc2)[C@@H](c2ccc(O)cc2)N1c1ccc(F)cc1` [ezetimibe, Ezetimibe], in series [1], the “activity in the cell fusion assay” value is “inactive”; the “inhibition of syncytia formation” value was “impaired viral entry; also recorded: had inhibitory activity in the cell fusion assay; also recorded: inhibited both viral infection and cell fusion”; the “potency in the cell fusion assay relative to the viral infection assay” value was “lower potency in the cell fusion assay”. The “Syncytia Assay” value in series [1] (setting [8]) is recorded as “Active”. Besides, in the series on Vero-E6 cells [2] (25 μM, Vero-E6), the cell numbers result is recorded as “reduction in cell numbers was also observed”. In addition, in series [3] (25 μM (highest concentration studied), Vero-E6), the “reduction of spike protein-expressing populations” value was “reduced spike protein-expressing populations only at the highest concentration studied”. Also, in series [3] (setting [9]), the “Viral Entry Assay” value is on record as “Active”.

In the case of `COCCCC/C(=N\OCCN)c1ccc(C(F)(F)F)cc1` [fluvoxamine], the “decrease of Covid-19 deaths” value with Covid-19 is on record as 90%.

For the compound `CCCCCCc1ccc(O)cc1O` [hexylresorcinol, Hexylresorcinol], in the series with HEK293 cells (setting [7]), the “cell loss / cytotoxicity (total GFP)” value is “mirrored by cell loss”. The “Syncytia Assay” value in series [1] (setting [8]) was “Active”.

Turning to `CN(C)CCCN1c2ccccc2CCc2ccccc21` [imipramine, Imipramine hydrochloride], the “Syncytia Assay” value in series [1] is “Active”. Also, in series [1] (hydrochloride), the “inhibition of syncytia formation” value is reported as “impaired viral entry; also recorded: inhibited syncytia formation”.

The term Cmax denotes the peak of the concentration-time curve. One may read the EC50 as the concentration needed to bring the measured effect to its halfway point. Lower therefore signals an effect from little substance. On to `C[C@]1(O)C[C@@H](c2nc(-c3ccc4ccc(-c5ccccc5)nc4c3)c3c(N)nccn32)C1` [linsitinib, Linsitinib], for which the Cmax in series [4] is 5 to 10 µM. The “inhibition of syncytia formation” value is “impaired viral entry; also recorded: particularly effective; also recorded: most potent agent; also recorded: dose-responsive inhibition of syncytia formation; also recorded: complete inhibition of cell fusion; also recorded: substantially reduced spike-protein-dependent syncytia formation” in series [1], “highest inhibitory activity” in series [1] (listed as Linsitinib) and “highest inhibitory activity” in series [1] (listed as linisitinib). For the same compound, a half-maximal effect in series [1] (Homo sapiens, HEK-293T, cell fusion (syncytia) assay) (EC50) was put at 25 µM. Besides, the “Syncytia Assay” value in series [1] (setting [8]) was “Active”.

Regarding `N=C(N)c1ccc2cc(OC(=O)c3ccc(N=C(N)N)cc3)ccc2c1` [nafamostat], in the series on HEK293 cells (setting [7]), the “cell loss / cytotoxicity (total GFP)” value is given as “did not mirror cell loss”. Besides, in series [5], the “inhibition of syncytia formation” value was “prevented syncytia formation”.

Consider `CC(=O)c1c(O)c(C)c(O)c(Cc2c(O)c3c(c(C(=O)/C=C/c4ccccc4)c2O)OC(C)(C)C=C3)c1O` [rottlerin, Rottlerin], for which the “host cell toxicity (reduced cell count)” value was “dose-limiting toxicity” in the series with Vero-E6 cells [2] (Vero-E6) and “dose-limiting toxicity as evidenced by reduced cell count” in the series on Vero-E6 cells [2] (Vero-E6, listed as R077). Besides, the “antiviral activity / inhibition of SARS-CoV-2 infection in Vero-E6 cells” value (“antiviral activity / inhibition” for short) in series [3] ([…], concentration not stated, listed as Rottlerin) was “inhibited viral infection”. In addition, in series [3] (setting [9]), the “Viral Entry Assay” value is given as “Active”.

As to `OCc1cc(C(O)CNCCCCCCOCCCCc2ccccc2)ccc1O` (centres unmarked) [salmeterol, Salmeterol], the “cell loss / cytotoxicity (total GFP)” value in the series with HEK293 cells was “mirrored by cell loss”. In addition, in series [1], the “Syncytia Assay” value is “Active”; the “inhibition of syncytia formation” value was “had inhibitory activity in the cell fusion assay and full and not borne out by syncytia formation experiments with either HEK293T or Calu-3 cells, except at high concentration”; the “potency in the cell fusion assay relative to the viral infection assay” value was “at least two orders of magnitude less potent”. For the same compound, the “inhibition of syncytia formation” value in series [5] is “not borne out by syncytia formation experiments with either HEK293T or Calu-3 cells, except at high concentration”. Further, the “host cell toxicity (reduced cell count)” value in the series with Vero-E6 cells [6] is on record as “without apparent host cell toxicity”. In series [3], the “Viral Entry Assay” value is given as “Active”, the “antiviral activity / inhibition” value is reported as “exhibited antiviral activities; also recorded: prevented viral infection; also recorded: particularly strong inhibitory activities; also recorded: particularly effective; also recorded: can block in vitro SARS-CoV-2 replication at clinically relevant concentrations”, the “antiviral effect on spike-expressing cell population” value is recorded as “reduced the median of the spike-expressing population; also recorded: greater antiviral effect on the entire population” and the spike-positive cells is roughly 14%.

As for `Cc1cc(C)c(/C=C2\C(=O)Nc3ccccc32)[nH]1` [semaxanib, Semaxanib], the “Syncytia Assay” value in series [1] (setting [8]) is given as “Active”.

For the compound `CO[C@H]1C[C@@H]2CC[C@@H](C)[C@@](O)(O2)C(=O)C(=O)N2CCCC[C@H]2C(=O)O[C@H]([C@H](C)C[C@@H]2CC[C@@H](OC(=O)C(C)(CO)CO)[C@H](OC)C2)CC(=O)[C@H](C)/C=C(\C)[C@@H](O)[C@@H](OC)C(=O)[C@H](C)C[C@H](C)/C=C/C=C/C=C/1C` [temsirolimus, Temsirolimus], the “antiviral activity / inhibition” value in series [3] ([…], concentration not stated) is reported as “Qualitatively similar results to salmeterol”. In addition, the “Viral Entry Assay” value in series [3] (setting [9]) is listed as “Active”.

On to `CCC(=O)N1CCN(c2ccc(-n3c(=O)ccc4cnc5ccc(-c6cnc7ccccc7c6)cc5c43)cc2C(F)(F)F)CC1` [torin-1, Torin-1], for which, in the series with Vero-E6 cells [2] (100 nM), the toxicity entry is “toxic”. For the same compound, in the series with Vero-E6 cells [6], the “host cell toxicity (reduced cell count)” value is “dose-limiting toxicity as evidenced by reduced cell count”. The “antiviral activity / inhibition” value in series [3] ([…], concentration not stated) is given as “Qualitatively similar results to salmeterol”. The “Viral Entry Assay” value in series [3] (setting [9]) is recorded as “Active”.

Consider Dec-RVKR-CMK, for which the “cell loss / cytotoxicity (total GFP)” value with HEK293 cells (setting [7]) is given as “did not mirror cell loss”. The “inhibition of syncytia formation” value in series [1] (HEK293T acceptor cells with ACE2 and TMPRSS2, 1-2 h pretreatment, 4 h co-culture) was “prevented syncytia formation; also recorded: similarly potent in both cell types; also recorded: dose-responsive inhibition of syncytia formation”; in series [5] (Calu-3 acceptor cells, 1-2 h pretreatment, 4 h co-culture), “prevented syncytia formation; also recorded: seemingly larger maximal magnitude of inhibition”.
